Laboratory results taken from PubChem BioAssay (NCI).
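Each compound was tested at five concentrations against cells in 96-well plates for 48 hours. Abbreviation: GI50, concentration required for 50% inhibition of growth. TGI marks complete inhibition of growth.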

Columns and labels:
Experiment in all cases: NCI tumour cell line growth inhibition, 48 h
[1] = tested on: KM12 colon
[2] = tested on: HL-60(TB) leukemia
[3] = tested on: M14 melanoma
[4] = tested on: OVCAR-8 ovarian
[5] = tested on: SNB-19 CNS
[6] = tested on: TK-10 renal
[7] = tested on: CAKI-1 renal
[8] = tested on: IGROV1 ovarian
[9] = tested on: SNB-75 CNS
[10] = tested on: BT-549 breast

COc1ccc2nc3cc(Cl)ccc3c(NCCNCC(O)CO)c2c1 (stereo not given)
GI50 [1]: 1.66 µM
TGI [1]: 10.7 µM
GI50 [2]: 2.83 µM
TGI [2]: 7 µM
GI50 [3]: 2.79 µM
TGI [3]: 10.9 µM
GI50 [4]: 1.17 µM
TGI [4]: 11.7 µM
GI50 [5]: 1.29 µM
TGI [5]: 12.6 µM
GI50 [6]: 3.11 µM
TGI [6]: 12.4 µM
GI50 [7]: 5.79 µM
TGI [7]: 20.3 µM
GI50 [8]: 1.7 µM
TGI [8]: 11.7 µM
GI50 [9]: 1.14 µM
TGI [9]: 11.1 µM
GI50 [10]: 6.69 µM
TGI [10]: 20.8 µM

O=C(/C=C/c1ccco1)Nc1ncc(Cc2cccc(C(F)(F)F)c2)s1
GI50 [1]: 0.0432 µM
TGI [1]: > 31.8 µM
GI50 [2]: 0.0604 µM
TGI [2]: 0.19 µM
GI50 [3]: 0.0572 µM
TGI [3]: 3.18 µM
GI50 [4]: 0.138 µM
TGI [4]: > 37.7 µM
GI50 [5]: 0.1 µM
TGI [5]: > 44.5 µM
GI50 [6]: 0.779 µM
TGI [6]: 13.8 µM
GI50 [7]: 0.0464 µM
TGI [7]: 7.93 µM
GI50 [8]: 0.124 µM
TGI [8]: > 32.2 µM
GI50 [9]: 0.0301 µM
TGI [9]: 1.65 µM
GI50 [10]: 0.248 µM
TGI [10]: > 21.2 µM

O=C(CN1CCN(CCN2C(=O)c3cccc4cccc(c34)C2=O)CC1)Nc1ccc2ncsc2c1
GI50 [1]: 6.16 µM
TGI [1]: 25.4 µM
GI50 [2]: 10.2 µM
TGI [2]: 27.5 µM
GI50 [3]: 8.63 µM
TGI [3]: 22.2 µM
GI50 [4]: 3.8 µM
TGI [4]: 22.9 µM
GI50 [5]: 4.5 µM
TGI [5]: 21.7 µM
GI50 [6]: 10.5 µM
TGI [6]: 23.7 µM
GI50 [7]: 4.91 µM
TGI [7]: > 100 µM
GI50 [8]: 7.91 µM
TGI [8]: > 100 µM
GI50 [9]: 9.44 µM
TGI [9]: > 100 µM
GI50 [10]: 11.9 µM
TGI [10]: 30.1 µM
